These results are taken from patent US11517581B2, “Zika virus protease inhibitors and methods of use thereof” (priority 2017, dated 2022).

Values after ≈ are worked out from the molar mass of the structure shown.

The nature of series [1]: Cell viability (MTT) assay in Huh-7 cells. The format is cell-based. Conditions: human. The protocol: (§1) Briefly, Vero or Huh-7 cells (4×10^4 cells/well) were incubated with different concentrations of individual drug for 24 h, followed by the addition of 10 μl/well of 5 mg/ml MTT substrate. The monolayers were incubated as above for 4 h (away from light). Finally, 100 μl of 10% sodium dodecyl sulfate (SDS) with 0.01M HCl was added and further incubated at 37° C. with 5% CO2 overnight. […] Briefly, the drug compounds were diluted with serum-free MEM and added to confluent Vero cells in 96-well culture plates (4×10^4 cells/well) in triplicate for 2 h at 37° C. After incubation, the drug-containing media were removed, and ZIKV (multiplicity of infection, MOI=0.0002) was added together with fresh drug-compound media to each well. Following 1 h of adsorption at 37° C., the virus-compound mixture was removed and the cells were washed twice with MEM to remove unbound virus. Subsequently, media with antiviral compounds were added to the cells for further incubation for 6 days at 37° C. in a 5% CO2 humidified environment. CPE was examined by inverted light microscopy (Chan et al., 2016b). Thereafter, MTT substrate and SDS-HCl were added sequentially as mentioned above. The half maximal inhibitory concentration (IC50) and CC50 were calculated using Sigma plot (SPSS) in an Excel add-in ED50V10.

In series [2] the test system is ZIKV (Puerto Rico strain PRVABC59). In words: Viral load reduction assay (qRT-PCR) in Huh-7 cells. The format is cell-based. The note with it: Zika virus, 0.05 MOI, 48 hours post-infection, supernatant qRT-PCR. The protocol:
(§2) A clinical isolate of ZIKV (Puerto Rico strain PRVABC59) obtained from a patient in the recent South American epidemic was kindly provided by Brandy Russell and Barbara Johnson, Centers for Disease Control and Prevention, USA. The virus was cultured and titrated as we previously described with slight modifications (Chan et al., 2016b; Zhou et al., 2014). The virus was amplified by three additional passages in Vero cells (ATCC) in minimum essential medium (MEM) supplemented with 1% fetal bovine serum (FBS, Gibco™, Life Technologies Corporation, Massachusetts, USA) and 100 units/ml penicillin plus 100 μg/ml streptomycin to make working stocks of the virus (4×10^6 50% tissue culture infectious dose (TCID50)/ml). For virus titration, aliquots of ZIKV were applied on confluent Vero cells in 96-well plates for the TCID50 assay as was previously described with slight modifications (Chan et al., 2016b; Zhou et al., 2014). Briefly, serial 10-fold dilutions of ZIKV were inoculated in a Vero cell monolayer in quadruplicate and cultured in penicillin/streptomycin-supplemented MEM and 1% FBS. […] Viral titer was calculated using the Reed and Munch endpoint method. One TCID50 was interpreted as the amount of virus that causes cytopathic effect in 50% of inoculated wells.
In general terms: Quantitative PCR measures a nucleic acid by following its amplification.

In series [3] the target is T1, ZIKV NS2B-NS3 protease (Zika virus, UniProt A0A024B7W1, DEL1468-1502). In words: Enzyme kinetic experiments, mode of protease inhibition. Type of series: biochemical. The note with it: 5 nM protease, substrate 0-100 μM, drug 0-1000 μg/ml; global R^2=0.99. The protocol: Hydrogen bonds and hydrophobic contact areas are represented by dashed lines and the two brackets, respectively. The main interacting residues are labeled. The dashed lines represent bonds between hydrogen and acceptor atoms that are involved. […] In the assay, concentration of ZIKV NS2B-NS3 protease was fixed as 5 nM, while different concentrations of substrate (100, 50, 25, 12.5, 6.25, 3.125 and 0 μM) were added to plot the enzyme kinetic curves. Four concentrations of the drug (1000, 250, 62.5 and 0 μg/ml) were tested individually against the different concentrations of substrate. The experiments were repeated twice for confirmation. The data were analyzed for mode of inhibition by GraphPad Prism 6 in the module of enzyme kinetics. R^2>0.95 was considered as statistically significant.
T1 sequence (A0A024B7W1 1502-1672, added parts left off, stated change not applied): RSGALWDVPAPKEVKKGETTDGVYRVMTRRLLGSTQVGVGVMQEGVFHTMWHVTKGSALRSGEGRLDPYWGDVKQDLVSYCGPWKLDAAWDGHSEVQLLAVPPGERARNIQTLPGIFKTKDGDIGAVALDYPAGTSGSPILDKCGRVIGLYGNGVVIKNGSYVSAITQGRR
To explore the mode of protease inhibition, enzyme kinetic experiments were performed in the presence or absence of the drug.

Series [4] is described as follows: Cell viability (MTT) assay in Vero cells. Type of series: cell-based. Conditions: African green monkey. As to the method: as §1
Series [5] deals with ZIKV (Puerto Rico strain PRVABC59) in Vero cells. In words: Viral load reduction assay, Vero cells. The format is cell-based, Zika virus. Conditions: culture supernatants. As to the method:
as §2

The subject of series [6] is ZIKV (Puerto Rico strain PRVABC59) in BALB/c mice. As to the kind of experiment: In vivo treatment of dexamethasone-immunosuppressed mice with disseminated ZIKV infection. Set-up: species or system mouse (BALB/c); Zika virus. The note with it: 100 mg/kg q12 h sc.
Method: Phosphate-buffered saline (PBS) was used to dilute the virus stocks to the desired concentration, and inocula were back-titrated to verify the dose given. On the day of virus inoculation, a dose of the virus equivalent to 6×10^6 TCID50 (3.24×10^6 plaque forming units) in 2000 of PBS was inoculated via the intraperitoneal route into mice under ketamine (100 mg/kg) and xylazine (10 mg/kg) anesthesia. Mice in the negative-control groups were injected with the same volume of PBS. Mice were monitored three times each day for clinical signs of disease and a numerical score was assigned at each observation as previously described (Chan et al., 2016c). Three mice per group were sacrificed at 5 dpi for virological, histological, and immunohistochemistry analyses. The remaining mice were sacrificed at 14 dpi or euthanized when there was ≥20% weight loss or ≥10% weight loss with ≥1 clinical sign. Samples of major organs were collected at necropsy for virological, histological, and immunohistochemical analyzes as we previously described (Chan et al., 2016c. Chan et al., 2017b). Blood samples were also collected for RNA extraction and qRT-PCR analysis.
For immunohistochemical analysis, each organ was entirely embedded in one paraffin block, and one full-face paraffin section at the maximum diameter of each organ was examined per block.
For series [7], the system named is ZIKV. As to the kind of experiment: Time-of-drug-addition assay in Vero cells. The format is cell-based, Zika virus. The protocol: Briefly, Vero cells were seeded in 24-well plates (2×10^5 cells/well). The cells were inoculated with ZIKV (MOI=2) and then incubated for 1 h for virus internalization. The viral inoculum was then removed and the cells were washed twice with PBS. […] At 18 hpi, the cell culture supernatant of each time point experiment was collected for viral load measurement using qRT-PCR.

The conditions of series [8]: human; cited from earlier work.
In series [9] the target is T1, ZIKV NS2B-NS3 protease. Type of series: biochemical. The note with it: 10 μM substrate, 5 nM protease.
Series [10] has as its system ZIKV. As to the kind of experiment: Plaque reduction assay in Vero cells. Type of series: cell-based, Zika virus. As to the method: Plaque reduction assay was performed as we previously described with slight modifications (Chan et al., 2017a). Briefly, Vero cells were seeded at 2×10^5 cells/well in 24-well tissue culture plates on the day before carrying out the assay. After 24 h of incubation, 20-40 plaque-forming units (PFU) of ZIKV were added to the cell monolayer with or without the addition of drug compounds and the plates were further incubated for 1 h at 37° C. in 5% CO2 before removal of unbound viral particles by aspiration of the media and washing once with MEM. Monolayers were then overlaid with media containing 1% low melting agarose (Cambrex Corporation, New Jersey, USA) in MEM and appropriate concentrations of drug compounds, inverted and incubated as above for another 96 h. The wells were then fixed with 10% formaldehyde (BDH, Merck, Darmstadt, Germany) overnight. After removal of the agarose plugs, the monolayers were stained with 0.7% crystal violet (BDH, Merck) and the plaques were counted. The percentage of plaque inhibition relative to the control (i.e. without the addition of compound) wells were determined for each drug compound concentration.

What is called CC50 is the concentration that lowers cell viability or growth by half. Usually IC50 stands for the point on the concentration scale where inhibition reaches its midpoint. As to `CO[C@@H]1[C@@H](OC(N)=O)[C@@H](O)[C@H](Oc2ccc3c(O)c(NC(=O)c4ccc(O)c(CC=C(C)C)c4)c(=O)oc3c2C)OC1(C)C` [Novobiocin], the CC50 at 24 h in series [1] was determined as 1100 µg/mL (≈ 1800 µM); in series [4], 850 µg/mL (≈ 1390 µM). The IC50 came to 38.1 ± 4.53 µg/mL (≈ 62.3 µM) in series [2] and 15.21 ± 0.14 µg/mL (≈ 24.8 µM) in the series with ZIKV [10] (Zika virus, Vero cells). Moreover, at ZIKV NS2B-NS3 protease [3], the “Mode of protease inhibition” value is reported as “competitive”. Also, the “Reduction in virus titer” value in series [5] is “dose-dependent reduction in virus titer”. Also, the “ZIKV NS1 antigen expression in organ tissues (brain, testis, kidney)” value in series [6] (5 dpi) is “minimal ZIKV NS1 antigen expression”. In addition, the “Inflammatory infiltrate in brain, testis and kidney” value in [6] (ZIKV-inoculated and mock-infected mice with novobiocin) is “no or mild inflammatory infiltrate”. Besides, in the series on ZIKV [7] (100 μg/ml added at 0, 3, 6, 9, or 12 hpi, MOI 2, P<0.05), the “Viral loads at 18 hpi, drug added during virus replication stage” value is recorded as “significantly reduced”. The “Inhibitory activity, drug added at adsorption or release stage” value with ZIKV [7] (100 μg/ml at 0-1 hpi or at 14 hpi) is reported as “No significant inhibitory activity”. For the same compound, in the series with ZIKV [7] (100 μg/ml, −1 to 0 hpi), the “ZIKV attachment, cells pretreated with drug” value is “not affected”. The Clinical tolerability entry in [8] is reported as “generally well tolerated clinically”. Also, the “Effect of increasing drug concentrations on protease activity” value on ZIKV NS2B-NS3 protease [9] is given as “dose-dependent reduction in protease activity”. The compound also had a Plaque reduction in the series on ZIKV [10] (at concentrations ≥50.00 μg/ml) of 100%.
